Measured values from patent US20060281764A1, “AMINOPYRIMIDINES AS KINASE MODULATORS” (priority 2005, published 2006).

Legend:
[1] = biological target: T1, isolated kinase domain of the human c-kit receptor (Homo sapiens, UniProt P10721); assay: c-Kit Fluorescence Polarization Kinase Assay; type: biochemical; conditions: FP assay, 50 uM ATP, 1 nM c-kit; uncertainty ±10%
T1 construct: isolated kinase domain of the human c-kit receptor; purchased ProQinase lot SP005
Procedure: The compounds of the present invention are also specific inhibitors of c-Kit. Selection of preferred compounds of Formula I for use as c-Kit inhibitors was performed in the following manner using an in vitro kinase assay to measure inhibition of the isolated kinase domain of the human c-kit receptor in a fluorescence polarization (FP) protocol. The c-kit assay utilized the fluorescein-labeled phosphopeptide and the anti-phosphotyrosine antibody included in the Panvera Phospho-Tyrosine Kinase Kit (Green) supplied by Invitrogen. When c-kit phosphorylated the poly Glu4Tyr, the fluorescein-labeled phosphopeptide was displaced from the anti-phosphotyrosine antibody by the phosphorylated poly Glu4Tyr, thus decreasing the FP value. The c-kit kinase reaction was incubated at room temperature for 45 minutes under the following conditions: 1 nM c-kit (ProQinase, lot SP005), 100 ug/mL poly Glu4Tyr, 50 uM ATP, 5 mM MgCl2, 1 mM DTT, 0.01% Tween-20, 1% DMSO or compound in […], pH 7.5. The kinase reaction was stopped with the addition of EDTA. The fluorescein-labeled phosphopeptide and the anti-phosphotyrosine antibody were added and incubated for 30 minutes at room temperature and fluorescence polarization was read. Data points were an average of triplicate samples. […]

[2] = biological target: T2, TrkB (Homo sapiens, UniProt Q16620); assay: Trk B Fluorescence Polarization Kinase Assay; type: biochemical; conditions: FP assay, 150 uM ATP, 50 nM TrkB; uncertainty ±10%
T2 construct: purchased Upstate 14-507M
Procedure: The compounds of the present invention are also specific inhibitors of TrkB. Selection of preferred compounds of Formula I for use as TrkB inhibitors was performed in the following manner. The TrkB assay utilized the fluorescein-labeled phosphopeptide and the anti-phosphotyrosine antibody included in the Panvera Phospho-Tyrosine Kinase Kit (Green) supplied by Invitrogen. When TrkB phosphorylated poly Glu4Tyr, the fluorescein-labeled phosphopeptide was displaced from the anti-phosphotyrosine antibody by the phosphorylated poly Glu4Tyr, thus decreasing the FP value. The TrkB kinase reaction was incubated at room temperature for 30 minutes under the following conditions: 50 nM TrkB (Upstate, catalog # 14-507M), 20 ug/mL poly Glu4Tyr, 150 uM ATP, 5 mM MgCl2, 1% compound in DMSO. The kinase reaction was stopped with the addition of EDTA. The fluorescein-labeled phosphopeptide and the anti-phosphotyrosine antibody were added and incubated for 30 minutes at room temperature. Data points were an average of triplicate samples. Inhibition and IC50 data analysis were done with GraphPad Prism using a non-linear regression fit with a multiparamater, sigmoidal dose-response (variable slope) equation.

[3] = biological target: T3, FLT ligand-induced wild-type FLT3 phosphorylation in Baf3 FLT3 cells (Homo sapiens, UniProt P36888); assay: Cell-Based FLT3 Receptor Elisa (Baf3 FLT3 cells); conditions: 1 hour compound incubation, 100 ng/mL Flt ligand, uncertainty ±20%
T3 construct: host or cells: Baf3 (murine B cell lymphoma line)
T3 sequence (P36888 27-993): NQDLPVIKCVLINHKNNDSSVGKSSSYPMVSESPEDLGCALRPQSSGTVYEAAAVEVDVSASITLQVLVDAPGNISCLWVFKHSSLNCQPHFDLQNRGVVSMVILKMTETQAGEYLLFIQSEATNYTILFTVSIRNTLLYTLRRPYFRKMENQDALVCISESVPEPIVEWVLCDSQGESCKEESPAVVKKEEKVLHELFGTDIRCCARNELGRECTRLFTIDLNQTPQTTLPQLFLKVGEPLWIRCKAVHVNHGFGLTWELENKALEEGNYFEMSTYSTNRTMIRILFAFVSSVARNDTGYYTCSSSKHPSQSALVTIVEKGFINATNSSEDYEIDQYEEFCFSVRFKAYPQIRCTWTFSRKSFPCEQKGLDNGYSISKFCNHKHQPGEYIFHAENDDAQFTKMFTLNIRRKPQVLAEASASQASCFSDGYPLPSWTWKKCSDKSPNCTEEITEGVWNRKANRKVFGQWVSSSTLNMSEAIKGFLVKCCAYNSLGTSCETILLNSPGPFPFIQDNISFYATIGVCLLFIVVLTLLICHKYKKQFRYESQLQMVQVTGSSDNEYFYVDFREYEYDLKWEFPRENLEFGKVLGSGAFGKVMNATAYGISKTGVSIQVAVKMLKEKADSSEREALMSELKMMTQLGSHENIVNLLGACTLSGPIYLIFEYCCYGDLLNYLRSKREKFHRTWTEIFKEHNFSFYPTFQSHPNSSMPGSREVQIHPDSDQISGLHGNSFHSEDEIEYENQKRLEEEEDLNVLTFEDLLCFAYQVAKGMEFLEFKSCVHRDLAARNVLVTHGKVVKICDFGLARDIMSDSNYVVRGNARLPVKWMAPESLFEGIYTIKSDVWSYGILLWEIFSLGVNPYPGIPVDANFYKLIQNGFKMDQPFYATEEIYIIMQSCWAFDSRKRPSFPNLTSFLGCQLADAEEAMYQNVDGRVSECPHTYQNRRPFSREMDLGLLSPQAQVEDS
Procedure: Specific cellular inhibition of FLT ligand-induced wild-type FLT3 phosphorylation was measured in the following manner: Baf3 FLT3 cells overexpressing the FLT3 receptor were obtained from Dr. Michael Heinrich (Oregon Health and Sciences University). The Baf3 FLT3 cell lines were created by stable transfection of parental Baf3 cells (a murine B cell lymphoma line dependent on the cytokine IL-3 for growth) with wild-type FLT3. Cells were selected for their ability to grow in the absence of IL-3 and in the presence of FLT3 ligand.
Baf3 cells were maintained in RPMI 1640 with 10% FBS, penn/strep and 10 ng/ml FLT ligand at 37° C., 5% CO2. To measure direct inhibition of the wild-type FLT3 receptor activity and phosphorylation a sandwich ELISA method was developed similar to those developed for other RTKs (3,4). 200 μL of Baf3FLT3 cells (1×10^6/mL) were plated in 96 well dishes in RPMI 1640 with 0.5% serum and 0.01 ng/mL IL-3 for 16 hours prior to 1 hour compound or DMSO vehicle incubation. Cells were treated with 100 ng/mL Flt ligand (R&D Systems Cat# 308-FK) for 10 min. at 37° C. Cells were pelleted, washed and lysed in 100 ul lysis buffer (50 mM Hepes, 150 mM NaCl, 10% Glycerol, 1% Triton —X-100, 10 mM NaF, 1 mM EDTA, 1.5 mM MgCl2, 10 mM NaPyrophosphate) supplemented with phosphatase (Sigma Cat# P2850) and protease inhibitors (Sigma Cat #P8340). […]

T2 sequence (Q16620 32-822): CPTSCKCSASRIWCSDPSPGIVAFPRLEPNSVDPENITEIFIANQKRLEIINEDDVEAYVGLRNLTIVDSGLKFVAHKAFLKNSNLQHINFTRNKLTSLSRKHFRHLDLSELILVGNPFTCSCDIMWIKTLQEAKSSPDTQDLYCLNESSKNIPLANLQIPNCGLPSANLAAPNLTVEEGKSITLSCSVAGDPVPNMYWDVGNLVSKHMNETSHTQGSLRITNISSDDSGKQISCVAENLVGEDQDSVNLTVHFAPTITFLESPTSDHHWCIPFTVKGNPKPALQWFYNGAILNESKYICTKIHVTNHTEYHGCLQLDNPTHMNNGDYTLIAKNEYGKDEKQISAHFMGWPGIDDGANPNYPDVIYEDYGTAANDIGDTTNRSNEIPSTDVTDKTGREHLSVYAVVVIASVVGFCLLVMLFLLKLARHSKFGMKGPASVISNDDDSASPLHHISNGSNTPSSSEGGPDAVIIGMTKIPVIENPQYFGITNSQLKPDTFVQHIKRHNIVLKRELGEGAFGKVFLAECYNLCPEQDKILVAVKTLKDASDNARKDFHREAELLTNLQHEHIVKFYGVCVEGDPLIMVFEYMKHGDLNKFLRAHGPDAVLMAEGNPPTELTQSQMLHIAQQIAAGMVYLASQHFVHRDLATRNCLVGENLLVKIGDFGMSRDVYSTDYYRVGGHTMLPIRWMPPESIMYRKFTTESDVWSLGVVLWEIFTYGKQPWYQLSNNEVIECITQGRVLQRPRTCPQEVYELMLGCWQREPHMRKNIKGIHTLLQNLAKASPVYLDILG
T1 sequence (P10721 589-937 limits assumed): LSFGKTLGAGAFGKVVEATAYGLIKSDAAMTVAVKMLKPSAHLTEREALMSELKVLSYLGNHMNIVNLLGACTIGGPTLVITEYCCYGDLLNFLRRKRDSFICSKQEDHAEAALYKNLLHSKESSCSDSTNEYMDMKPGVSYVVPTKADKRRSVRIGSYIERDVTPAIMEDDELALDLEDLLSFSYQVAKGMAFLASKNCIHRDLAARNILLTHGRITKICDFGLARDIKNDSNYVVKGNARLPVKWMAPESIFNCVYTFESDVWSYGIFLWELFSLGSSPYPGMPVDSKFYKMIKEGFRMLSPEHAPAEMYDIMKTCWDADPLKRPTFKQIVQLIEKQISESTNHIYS

Row | SMILES | IC50 [1] | IC50 [2] | IC50 [3]
1 | CCO/N=C/c1c(N)ncnc1N1CCC(OC(=O)Nc2ccc(OC(C)C)cc2)CC1 [Example 2, (4-Isopropoxy-phenyl)-carbamic acid 1-[6-amino-5-(ethoxyimino-methyl)-pyrimidin-4-yl]-piperidin-4-yl ester] | 0.38 µM | > 42 µM | –
2 | CO/N=C/c1c(N)ncnc1N1CCC(CC(=O)Nc2ccc(C(C)C)cc2)C1 (stereo not shown) [Example 6, 2-{1-[6-Amino-5-(methoxyimino-methyl)-pyrimidin-4-yl]-pyrrolidin-3-yl}-N-(4-isopropyl-phenyl)-acetamide] | 0.016 µM | 0.3 µM | –
3 | CC(C)Oc1ccc(NC(=O)OC2CCN(c3ncnc(N)c3/C=N/OCCN3CCOCC3)CC2)cc1 [Example 3, (4-Isopropoxy-phenyl)-carbamic acid 1-{6-amino-5-[(2-morpholin-4-yl-ethoxyimino)-methyl]-pyrimidin-4-yl}-piperidin-4-yl ester] | – | > 42 µM | –
4 | CO/N=C/c1c(N)ncnc1N1CCC(NC(=O)Nc2ccc(OC(C)C)cc2)C1 (stereo not shown) [Example 8, 1-{1-[6-Amino-5-(methoxyimino-methyl)-pyrimidin-4-yl]-pyrrolidin-3-yl}-3-(4-isopropoxy-phenyl)-urea] | – | 14.2 µM | –
5 | CO/N=C/c1c(N)ncnc1N1CCC(NC(=O)Nc2ccc(N3CCOCC3)cc2)C1 (stereo not shown) [Example 10, 1-{1-[6-Amino-5-(methoxyimino-methyl)-pyrimidin-4-yl]-pyrrolidin-3-yl}-3-(4-morpholin-4-yl-phenyl)-urea] | – | 32.1 µM | –
6 | CO/N=C/c1c(N)ncnc1N1CCC(NC(=O)Nc2ccc(OC3CCC3)nc2)C1 (stereo not shown) [Example 11, 1-{1-[6-Amino-5-(methoxyimino-methyl)-pyrimidin-4-yl]-pyrrolidin-3-yl}-3-(6-cyclobutoxy-pyridin-3-yl)-urea] | – | 4.2 µM | –
7 | CO/N=C/c1c(N)ncnc1N1CCC(NC(=O)Nc2ccc(N3CCOCC3)cc2)CC1 [Example 14, 1-{1-[6-Amino-5-(methoxyimino-methyl)-pyrimidin-4-yl]-piperidin-4-yl}-3-(4-morpholin-4-yl-phenyl)-urea] | – | 15.6 µM | –
8 | CO/N=C/c1c(N)ncnc1N1CCC(CC(=O)Nc2ccc(C(C)C)cc2)CC1 [Example 7, 2-{1-[6-Amino-5-(methoxyimino-methyl)-pyrimidin-4-yl]-piperidin-4-yl}-N-(4-isopropyl-phenyl)-acetamide] | – | 2.16 µM | –
9 | CO/N=C/c1c(N)ncnc1N1CCC(NC(=O)Nc2ccc(N3CCCCC3)cc2)CC1 [Example 13, 1-{1-[6-Amino-5-(methoxyimino-methyl)-pyrimidin-4-yl]-piperidin-4-yl}-3-(4-piperidin-1-yl-phenyl)-urea] | – | 2.9 µM | –
10 | CO/N=C/c1c(N)ncnc1N1CCC(OC(=O)Nc2ccc(OC(C)C)cc2)CC1 [Example 1, (4-Isopropoxy-phenyl)-carbamic acid 1-[6-amino-5-(methoxyimino-methyl)-pyrimidin-4-yl]-piperidin-4-yl ester] | – | 29.4 µM | –
11 | CO/N=C/c1c(N)ncnc1N1CCC(NC(=O)Nc2ccc(N3CCCCC3)cc2)C1 (stereo not shown) [Example 9, 1-{1-[6-Amino-5-(methoxyimino-methyl)-pyrimidin-4-yl]-pyrrolidin-3-yl}-3-(4-piperidin-1-yl-phenyl)-urea] | – | 11.9 µM | –
12 | CO/N=C/c1c(N)ncnc1N1CCC(OC(=O)Nc2ccc(C(C)C)cc2)CC1 [Example 5, (4-Isopropyl-phenyl)-carbamic acid 1-[6-amino-5-(methoxyimino-methyl)-pyrimidin-4-yl]-piperidin-4-yl ester] | – | 23.9 µM | –
13 | CO/N=C/c1c(N)ncnc1N1CCC(NC(=O)Nc2ccc(OC3CCC3)nc2)CC1 [Example 15, 1-{1-[6-Amino-5-(methoxyimino-methyl)-pyrimidin-4-yl]-piperidin-4-yl}-3-(6-cyclobutoxy-pyridin-3-yl)-urea] | – | > 42 µM | –
14 | CO/N=C/c1c(N)ncnc1N1CCC(NC(=O)Cc2ccc(C(C)C)cc2)CC1 [Example 16, N-{1-[6-Amino-5-(methoxyimino-methyl)-pyrimidin-4-yl]-piperidin-4-yl}-2-(4-isopropyl-phenyl)-acetamide] | – | 7.4 µM | –
15 | CO/N=C/c1c(N)ncnc1N1CCC(NC(=O)Nc2ccc(OC(C)C)cc2)CC1 [Example 12, 1-{1-[6-Amino-5-(methoxyimino-methyl)-pyrimidin-4-yl]-piperidin-4-yl}-3-(4-isopropoxy-phenyl)-urea] | – | 8.5 µM | –
16 | CC(C)Oc1ccc(NC(=O)OC2CCN(c3ncnc(N)c3/C=N/OCCCN(C)C)CC2)cc1 [Example 4, (4-Isopropoxy-phenyl)-carbamic acid 1-{6-amino-5-[(3-dimethylamino-propoxyimino)-methyl]-pyrimidin-4-yl}-piperidin-4-yl ester] | – | > 42 µM | 0.345 µM
